Experimental data reported in patent US6063814A, “Phorbol esters as anti-neoplastic and white blood cell elevating agents” (priority 1997, dated 2000).

Tested on: HL-60 cells
Assay: TPA + low doses of Ara-C, HL-60 differentiation
Type: cell-based, human
Conditions: Ara-C alone, low dose 100 ng/ml
Source text: (2) TPA+Low Doses of Ara-C:

`Nc1ccn([C@@H]2O[C@H](CO)[C@@H](O)[C@@H]2O)c(=O)n1` [Ara-C, cytarabine, reference compound] was tested, and the HL-60 cell differentiation was “could induce cell differentiation”.
